Test results from article PMC7180617, “Biological Evaluation of 3-Benzylidenechromanones and Their Spiropyrazolines-Based Analogues” (Molecules, 2020).
Values joined by “and” are separate entries in the source; they are usually repeats but may differ in a detail not shown here. Identical values can stand only once.

Key:
HL-60 cells [1] = assay: MTT cytotoxicity assay, HL-60; type: cell-based, human; details: 46 h + 2 h incubation
Method: (§1) The first stage of the study used the MTT viability test to determine the cytotoxicity of ten compounds, i.e., 3-arylidenechromanone, 3-arylideneflavanone, spirochromanone and spiro- flavanone analogues, against four human cancer cell lines: HL-60, NALM-6, WM-115 and COLO-205.
(§2) Cytotoxicity was tested against human skin melanoma cells (WM-115, ECACC, Salisbury, UK), two human leukemia cell lines, viz. promyelocytic leukemia (HL-60) and lymphoblastic leukemia (NALM-6), and human colon adenocarcinoma cells (COLO-205). The cell lines COLO-205, WM-115 and HL-60 used in this work came from the ATCC American Type Culture Collection (Manassas, VA, USA), whereas the NALM-6 cell line was purchased from the German Collection of Microorganisms and Cell Cultures (Braunschweig, Germany). The leukaemia cells and colon adenocarcinoma were cultured in RPMI 1640 medium (Invitrogen, Grand Island, NY, USA) supplemented with 10% fetal bovine serum (FBS; Invitrogen) and gentamicin (25 µg/mL; KRKA, Novo Mesto, Slovenia). For melanoma WM-115 cells, Dulbecco’s minimal essential medium (DMEM; Invitrogen) was used. All cell lines were cultured at 37 °C in a humidified atmosphere of 5% CO2 in air.
(§3) For all experiments, the studied compounds were dissolved in DMSO (Sigma-Aldrich) and were further diluted in culture medium to obtain <0.1% DMSO concentration. In each experiment, controls with and without 0.1% DMSO were performed. The cytotoxicity of all compounds and of the reference compounds 4-chromanone and 3-benzylideneflavanone was determined by the MTT assay, i.e., 3-(4,5-dimethylthiazol-2-yl)-2,5-diphenyltetrazolium bromide (Sigma, St. Louis, MO, USA), which measures cellular dehydrogenase activity. Exponentially growing cells were seeded a day before the experiment onto a 96-well microplates (Nunc, Roskilde, Denmark) at a density up to 6–8 × 10^3 cells/well (depending on the cell line). Subsequently, various concentrations of the studied compounds freshly prepared in DMSO and diluted with complete culture medium were added. All compounds were tested for their cytotoxicity at a final concentration of 10^−7–10^−3 M. After 46 h of incubation with the studied compounds, the cells were treated with the MTT reagent and incubation was continued for another two hours. MTT – formazan crystals were dissolved in 20% sodium dodecyl sulphate (SDS, Sigma-Aldrich) and 50% DMF (Sigma-Aldrich) at pH 4.7; following this, absorbance was read at 570 nm on a multifunctional Victor ELISA-plate reader (Perkin Elmer, Turku, Finland). The IC50 values, i.e., the concentration of the test compound required to reduce the cell survival fraction to 50% of controls, were calculated from concentration-response curves and used as a measure of the sensitivity of the cells to a given treatment. As a control, cultured cells were grown in the absence of drugs. The data points represent the means of at least five to ten repeats ± standard deviation (S.D.).

NALM-6 cells = assay: MTT cytotoxicity assay, NALM-6; type: cell-based, human; details: 46 h + 2 h incubation
Method: as §1, §2, §3

COLO-205 cells = assay: MTT cytotoxicity assay, COLO-205; type: cell-based, human; details: 46 h + 2 h incubation
Method: as §1, §2, §3

[2] = Lipophilicity (logP) by RP-TLC; details: for chromatographic logP: RP-18 F254S TLC plates
Text: Lipophilicity is one of the most important physicochemical properties in pharmaceutical research. It can be considered a key determinant of the pharmacokinetic properties of a drug. It is commonly measured by the partition coefficient between water and n-octanol, being expressed as logP [14]. […] Knowledge of the partition coefficient is valuable: it is frequently used in structure–activity relationship (SAR) and quantitative structure–activity relationship (QSAR) studies. The experimental lipophilicity of the synthesized compounds, viz. benzylideneflavanones, benzylidenechromanones and spiropyrazolines, was determined using RP-TLC. […] It is important to examine the relationship between structure of the compound and its lipophilicity and cytotoxicity.
The RP-TLC experiments were performed on TLC plates (5 × 10 cm) RP-18 F254S (Merck, Darmstadt, Germany). The synthesized compounds were dissolved in N,N-dimethylformamide DMF (2 mg/mL). […] A DMF-water solvent system was used as mobile phase. […] All experiments were performed at room temperature. The logP parameter was calculated using the equation from the calibration curve.

WM-115 cells = assay: MTT cytotoxicity assay, WM-115; type: cell-based, human; details: MTT, 46 h + 2 h incubation
Method: as §1, §2, §3

erythrocytes = assay: Red blood cell morphology (phase-contrast microscopy); type: cell-based; details: 2% erythrocyte suspension, 37 °C, 1 h, phase contrast 400×
Method: Studies on erythrocyte morphology complement the erythrotoxicity studies because they provide information on potential immediate interactions of the tested compounds with the erythrocyte lipid bilayer, and the possibility of creating pathological forms of erythrocytes, which are not able to carry oxygen. The effects of the synthesized compounds, and the two reference compounds chromanone and flavanone, on the morphology of erythrocytes is shown in Figure 6. Briefly, 2% RBC suspension was incubated with 0.9% NaCl (control samples) or tested compounds at various concentrations corresponding to their activity towards cancer cell lines.
A 2% erythrocyte suspension was incubated at 37 °C for one hour with various concentrations of synthesized compounds. The morphology of the RBCs was examined by means of a phase contrast Opta-Tech inverted microscope, at 400× magnification, equipped with software (OptaView 7) for image analysis.

HL-60 cells [3] = assay: Cell cycle analysis by flow cytometry (propidium iodide); type: cell-based, human; details: for cell cycle, G1, mean / cell cycle, G2/M, mean / cell cycle, S, mean: mean of n=2
Method: The next stage examined the effects of the selected compounds on cell cycle progression in HL-60 leukemia cells. […] One million HL-60 (subline CCL 240; cell type: promyeloblast) cells in 3 mL of RPMI 1640 supplemented with 20% FBS were seeded on 6-well plate. […] Fixed cells were stored in −20 °C for 2–3 days. Before analysis, cells were centrifuged (10 min, 1500 rpm, 4 °C) and washed twice with cold PBS. After the second wash, the cells were suspended in 1mL of PBS containing 100 μg of RNase A and incubated in 37 °C for 10 min. Next, 5 μL of solution of propidium iodide (1 mg/mL) was added to each sample and incubated in dark for 30 min at RT. Stained cells were analyzed by flow cytometry (FACS Calibur, BD Biosciences, San Jose, CA, USA). Data from 10,000 gated cells were collected using CellQuestPro software (Ver 6.0, Becton Dickinson) and cell cycle analysis was performed with ModFit LT software (Ver 3.2, Verity Software House, Topsham, ME, USA).

[4] = system: red blood cells (RBC membrane integrity); assay: Red blood cell lysis assay; type: cell-based; details: 2% RBC suspension, 37 °C, 1 h
Text: All synthesized compounds with potential biological activity have to be tested for blood compatibility since xenobiotics will react with blood cells upon administration. In this case, biocompatibility refers to the quantification of cellular and plasma components of the blood. The measurement of the integrity of RBC membrane is considered a simple and reliable method for estimating hemocompatibility.
The studies on biological material were approved by the Bioethics Committee of the Medical University of Lodz, Poland (RNN/109/16/KE). The blood samples were obtained from healthy donors at the Blood Donation Centre in Lodz. The procedure for plasma preparation for erythrotoxicity studies was described previously. The influence of synthesized compounds as well as two reference compounds flavanone and chromanone on RBC membrane integrity was performed by lysis assay which was conducted according to our previous protocol. Briefly, 2% RBC suspension in 0.9% NaCl was incubated at 37 °C for one hour with the tested compounds at various concentrations corresponding to their activity towards cancer cell lines or 0.9% NaCl (control). The samples were centrifuged at 3000 rpm for 10 min and the absorbance of the supernatant was measured at 550 nm. The results are presented as percentage of haemolysis where a sample containing 10 μL of 2.0% v/v Triton X-100 was regarded as a positive control contributing to 100% of haemolysis. A sample containing saline solution represented spontaneous haemolysis of RBCs (control). The studies were performed on four biological samples obtained from different blood donors (n = 4). The results are presented as mean ± standard deviation (SD). The coefficient of variability for the method was counted: W = 9.51%, n = 5.

[5] = Figure S3, HL-60, 0.5 × IC50 (µM: quercetin 29, 1 1.5, 7 18, 10 4.7, 11 4.5, 12 6)
[6] = Figure S3, HL-60, 0.5 × IC50, each of two repetitions
[7] = Figure S3, HL-60, 1 × IC50 (µM: quercetin 58, 1 3, 7 35, 10 9.4, 11 9, 12 12)
[8] = Figure S3, HL-60, 1 × IC50, each of two repetitions

chromatographic logP [2]	Structure (SMILES)	IC50 (HL-60 cells [1]; MTT) [µM]	IC50 (NALM-6 cells; MTT) [µM]	IC50 (COLO-205 cells) [µM]	IC50 (WM-115 cells) [µM]	IC50 (COLO-205 cells; Homo sapiens, COLO 205, 48 h) [µM]	erythrocyte morphology (in words) (erythrocytes)	IC50 (WM-115 cells; Homo sapiens, WM-115, 48 h) [µM]	also measured
–	N.N.O=C([O-])C1(C(=O)[O-])CCC1.[Pt+2] [Carboplatin, reference compound]	4.3 ± 1.3	0.7 ± 0.2	355 ± 73.7	422 ± 50.2	–	–	–	logP ([2]; RP-TLC, DMF-water mobile phase, room temperature): −2.30
–	N.N.[Cl][Pt][Cl] [Cisplatin, reference compound]	0.8 ± 0.1	0.7 ± 0.3	61.5 ± 3.2	18.2 ± 4.3	–	–	–	–
4.79	COc1ccc(/C=C2/C(=O)c3ccccc3OC2c2ccccc2)cc1 (centres unmarked) [Compound 1, (E)-3-(4-methoxybenzylidene)-2-phenylchroman-4-one]	–	–	–	–	51 ± 2.3	extensive formation of echinocytes and anisocytes	58.1 ± 4.93	IC50 (HL-60 cells [1]; Homo sapiens, HL-60, 48 h, MTT): 53.4 ± 2.49 µM; IC50 (NALM-6 cells; Homo sapiens, NALM-6, 48 h, MTT): 49.8 ± 2.35 µM; cell cycle, G1, mean (HL-60 cells [3]; [5]): 23,52%; cell cycle, G2/M, mean (HL-60 cells [3]; [5]): 53,45%; cell cycle, S, mean (HL-60 cells [3]; [5]): 23,04%; cell cycle, G2/M, single repetitions (HL-60 cells [3]; [6]): 39,74% and 67,16%; cell cycle, S, single repetitions (HL-60 cells [3]; [6]): 21,38% and 24,69%; cell cycle, G1, mean (HL-60 cells [3]; Figure S3, HL-60, 1 × IC50 (µM in parenthesis: quercetin 58, 1 3, 7 35, 10 9.4, 11 9, 12 12)): 21,31%; cell cycle, G2/M, mean (HL-60 cells [3]; [7]): 53,71%; cell cycle, S, mean (HL-60 cells [3]; [7]): 25,02%; cell cycle, G2/M, single repetitions (HL-60 cells [3]; [8]): 68,86% and 38,56%; cell cycle, S, single repetitions (HL-60 cells [3]; [8]): 17,63% and 32,40%
2.19	O=C1CCOc2ccccc21 [Compound 4-Chromanone, 4-Chromanone, reference compound]	–	–	–	–	721.5 ± 6.4	echinocyte formation was observed	> 1000	IC50 (HL-60 cells [1]; Homo sapiens, HL-60, MTT): 677 ± 32.6 µM; IC50 (NALM-6 cells; Homo sapiens, NALM-6, MTT): 674 ± 22.5 µM; effect on RBC hemolysis / erythrocyte membrane integrity (in words) [4]: Neither flavanone nor chromanone was found to have any unfavourable effect on the erythrocyte membrane over the whole concentration range
